# Assay results: patent EP0242482B1, “Antiviral purine derivatives and process for their preparation” (BEECHAM GROUP PLC, priority 1985, dated 1987)
# Where two headings read alike, the source gives them in different places.
# Experiments:
# [1] = tested on: visna virus (strain K184); experiment: CPE inhibition test (established monolayer) for lentiviruses; type: cell-based; settings: minimum concentration giving complete protection of the cell monolayers
# Method: 3 x 10⁴ sheep choroid plexus (SCP) cells were plated into individual wells of a 96 well microtitre plate in 100»l of Eagle's MEM with Hanks salts containing 10% heat inactivated foetal calf serum (FCS). When monolayers had become established (after 1 or 2 days growth) they were washed with 200»l of maintenance medium (Eagle's MEM with Hanks salts containing 0.5% FCS) and infected with 100»l of visna virus (strain K184) in maintenance medium (30 TCID₅₀/ml). Test samples were diluted with maintenance medium in further 96 well microtitre plates over the range 200-0.09»g/ml by 3-fold dilution steps. 100»l of the diluted samples was then transferred directly onto virus-infected monolayers (final concentration range therefore 100-0.045»g/ml) and incubated at 37°C in a humidified, 5% CO₂ incubation until virus-induced CPE was maximal in the untreated virus-infected controls (usually 12-14 days). The plates were fixed with formal saline and stained with crystal violet. Virus-induced CPE was then scored microscopically and the minimum concentration of sample giving complete protection of the cell monolayers (MIC) determined.
# [2] = tested on: herpes simplex virus 1, strain SC16; experiment: CPE inhibition test (replicating cells) for herpes simplex virus 1; type: cell-based; settings: Human alphaherpesvirus 1, SC16, MRC5, SC16 strain in MRC-5 cells; each figure is the value obtained in a single test; read-out: IC₅₀ Herpes Simplex Type 1 virus SC16 strain in MRC-5 cells
# Text: MRC-5 cells (in Eagles MEM containing 5% newborn calf serum) were infected in suspension with herpes simplex virus 1, strain SC16 (approximately one infectious particle per 10 cells). One hundred microlitres of the infected cell suspension (containing approximately 2 x 10⁴ cells) were dispensed into each well of a 96 well microtitre plate containing an equal volume of the test drug in medium (Eagles MEM containing 5% newborn calf serum) at concentrations ranging from 200 to 0.09»g/ml (3-fold dilution steps); final concentrations therefore ranged between 100 to 0.045»g/ml. The plates were then incubated at 37°C in a humidified atmosphere of 5% CO₂ for 3 days when the virus-induced cytopathic effect (CPE) in the control wells reached 100%. The plates were fixed in formal saline and stained with carbol fuchsin. […] Plates of uninfected cells were set up in parallel to determined the minimum concentration of test compound which caused cytotoxicity.
# [3] = tested on: herpes simplex virus 1 (HSV-1; strain HFEM); experiment: Plaque reduction test for herpes simplex virus 1; type: cell-based; settings: Human alphaherpesvirus 1, Vero, HFEM strain in Vero cells; each figure is the value obtained in a single test; read-out: IC₅₀ Herpes Simplex Type 1 virus HFEM strain in Vero cells
# Method: (§1) Cells (Vero or MRC-5) were grown to confluence in 24 well multi-dishes (well diameter = 1.5cm). The drained cell monolayers were each infected with approximately 50 infectious particles of herpes simplex virus 1 (HSV-1; strain HFEM) or herpes simplex virus 2 (HSV-2; strain MS) in 100»l of phosphate-buffered saline. The virus was adsorbed for 1 hour at room temperature. After adsorption, residual inoculum was removed from each well and replaced with 0.5ml of Eagle's MEM containing 5% newborn calf serum and 0.9% agarose (A37). Once the agarose had set, dilutions of the test compound, which had been prepared in Eagle's MEM (containing 5% newborn calf serum), were added, each well receiving 0.5ml of liquid overlay. The test compound was diluted to give the following series of concentrations: 200, 60, 20, 6....0.06»g/ml; final concentrations in the assay ranged, therefore, between 100»g/ml and 0.03»g/ml. The infected cultures were incubated at 37°C in a humidified atmosphere of 5% CO₂ until plaques were clearly visible (2 or 3 days for Vero cells, usually 1 day for MRC-5 cells).
# (§2) Cultures from 1 and 2 were fixed in formal saline, the agarose overlays were carefully washed off, and then the cell monolayers were stained with carbol fuchsin. A stereo microscope was used to count plaques. The IC₅₀ (concentration of drug which inhibits plaque number by 50% relative to the number of plaques observed in virus control monolayers) of the test compound was calculated. In addition, the monolayers were examined for evidence of drug-induced cytotoxicity; the minimum concentration at which cytotoxicity occurs was recorded.
# [4] = tested on: herpes simplex virus 2 (HSV-2; strain MS); experiment: Plaque reduction test for herpes simplex virus 2; type: cell-based, Herpes Simplex Type 2 virus; settings: each figure is the value obtained in a single test
# Method: as §1, §2
# [5] = tested on: varicella zoster virus (VZV; Ellen strain); experiment: Plaque reduction test for varicella zoster virus; type: cell-based; settings: Human alphaherpesvirus 3, MRC5, Ellen strain in MRC-5 cells; each figure is the value obtained in a single test; read-out: IC₅₀ Varicella Zoster virus Ellen strain in MRC-5 cells
# Method: MRC-5 cells were grown to confluence in 24 well multi-dishes (well diameter = 1.5cm). The drained cell monolayers were each infected with approximately 50 infectious particles of varicella zoster virus (VZV; Ellen strain) in 100»l of phosphate-buffered saline. The virus was adsorbed for 1 hour at room temperature. After adsorption, residual inoculum was removed from each well and replaced with 0.5ml of Eagle's MEM containing 5% heat-inactivated foetal calf serum and 0.9% agarose (A37). Once the agarose had set, dilutions of the test compound, which had been prepared in Eagle's MEM (containing 5% heat-inactivated foetal calf serum), were added, each well receiving 0.5ml of liquid overlay. The test compound was diluted to give the following series of cencentrations: 200, 60, 20, 6....0.06»g/ml; final concentrations in the assay ranged, therefore, between 100»g/ml and 0.03»g/ml. The infected cultures were incubated at 37°C in a humidified atmosphere of 5% CO₂ until plaques were clearly visible (5 or 6 days).
# as §2
# [6] = Human alphaherpesvirus 2, MRC5, MS strain in MRC-5 cells, read-out: IC₅₀ Herpes Simplex Type 2 virus MS strain in MRC-5 cells
# [7] = Human alphaherpesvirus 2, Vero, MS strain in Vero cells, read-out: IC₅₀ Herpes Simplex Type 2 virus MS strain in Vero cells
Compound,MIC Visna Virus K184 strain in SCP cells [1],IC50 [2],IC50 [3],"IC50 [4, 6]","IC50 [4, 7]",IC50 [5]
"Nc1nc2c(ncn2OC(CO)CCO)c(=O)[nH]1 (stereo not shown) [Example 8, 9-(1,4-Dihydroxybut-2-oxy)guanine]",30 »g/ml,11 µg/mL,–,–,–,–
"CC(=O)OCCCOn1cnc2c(=O)[nH]c(N)nc21 [Example 2, 9-(3-Acetoxyprop-1-oxy)guanine]",–,0.4 µg/mL,4.3 µg/mL,1.1 µg/mL,–,–
"Nc1nc2c(ncn2O[C@@H](CO)CCO)c(=O)[nH]1 [Example 14, (R)-9-(1,4-Dihydroxybut-2-oxy)guanine]",–,100 µg/mL,–,–,–,–
"Nc1nc2c(ncn2OCCCO)c(=O)[nH]1 [Example 1, 9-(3-Hydroxyprop-1-oxy)guanine]",3.0 »g/ml,–,0.4 µg/mL,0.1 µg/mL,0.3 µg/mL,–
"Nc1nc2c(ncn2OCC(O)CO)c(=O)[nH]1 (stereo not shown) [Example 6, 9-(2,3-Dihydroxyprop-1-oxy)guanine]",10 »g/ml,1.9 µg/mL,8.6 µg/mL,0.7 µg/mL,1.6 µg/mL,2.3 µg/mL
"Nc1nc2c(ncn2OCCCOC(=O)c2ccccc2)c(=O)[nH]1 [Example 3, 9-(3-Benzoyloxyprop-1-oxy)guanine]",–,1.2 µg/mL,2.8 µg/mL,2.1 µg/mL,–,–
"CCOc1nc(N)nc2c1ncn2OCCCO [Example 4, 2-Amino-6-ethoxy-9-(3-hydroxyprop-1-oxy)purine]",–,100 µg/mL,–,67 µg/mL,–,21 µg/mL
"Nc1nc2c(ncn2OCC(CO)CO)c(=O)[nH]1 [Example 5, 9-(3-Hydroxy-2-hydroxymethylprop-1-oxy)guanine]",0.1 »g/ml,1.8 µg/mL,1.5 µg/mL,1.5 µg/mL,1.5 µg/mL,2.9 µg/mL
"CCCCCC(=O)OCCCOn1cnc2c(=O)[nH]c(N)nc21 [Example 11, 9-(3-Hexanoyloxyprop-1-oxy)guanine]",–,0.1 µg/mL,0.7 µg/mL,–,–,0.1 µg/mL
"Nc1nc2c(ncn2O[C@H](CO)CCO)c(=O)[nH]1 [Example 15, (S)-9-(1,4-Dihydroxybut-2-oxy)guanine]",–,7.4 µg/mL,–,–,–,–
"Nc1ncc2ncn(OCC(O)CO)c2n1 (stereo not shown) [Example 7, 2-Amino-9-(2,3-dihydroxyprop-1-oxy)purine]",–,100 µg/mL,–,–,–,57 µg/mL
